Columns and labels:
JAK1 = JAK1 (Homo sapiens (Human), UniProt P23458); assay: Jak biochemical HTRF assay, JAK1; details: recombinant purified GST-tagged catalytic domain; HTRF format; [ATP] 31.8 μM
Text: (§1) Jak Biochemical HTRF Assay Protocol
(§2) Subsequent reagent additions employed an Agilent Bravo.

JAK2 = JAK2 (Homo sapiens (Human), UniProt O60674); assay: Jak biochemical HTRF assay, JAK2; details: recombinant purified GST-tagged catalytic domain, HTRF format
Text: as §1, §2

Sequence of JAK1 (P23458 875-1153): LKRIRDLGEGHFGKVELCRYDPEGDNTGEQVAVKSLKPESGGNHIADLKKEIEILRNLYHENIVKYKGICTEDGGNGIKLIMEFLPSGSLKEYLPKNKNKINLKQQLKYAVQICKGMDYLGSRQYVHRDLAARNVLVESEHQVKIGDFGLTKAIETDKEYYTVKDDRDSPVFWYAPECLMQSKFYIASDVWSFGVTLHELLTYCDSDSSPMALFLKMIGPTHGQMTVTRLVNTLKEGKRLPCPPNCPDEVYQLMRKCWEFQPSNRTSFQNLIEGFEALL
Sequence of JAK2 (O60674 849-1124): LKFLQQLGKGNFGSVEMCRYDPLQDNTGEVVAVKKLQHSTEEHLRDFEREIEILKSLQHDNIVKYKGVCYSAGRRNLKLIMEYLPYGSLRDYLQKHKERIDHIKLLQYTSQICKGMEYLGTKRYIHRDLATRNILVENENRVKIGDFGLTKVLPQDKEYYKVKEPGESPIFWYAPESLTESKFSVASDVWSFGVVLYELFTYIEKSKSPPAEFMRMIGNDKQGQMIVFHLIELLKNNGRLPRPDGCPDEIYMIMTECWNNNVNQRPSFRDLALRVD

Compound | IC50 (JAK1) | IC50 (JAK2; [ATP] […]) | IC50 (JAK2; [ATP] 8.5 μM)
CC(C)(C)OC(=O)N1CC[C@H](n2cc(C(N)=O)c(Nc3ccccc3)n2)[C@H](C#N)C1 (mixture of isomers) [Example 1-1, tert-butyl(3R,4S and 3S,4R)-4-[4-(aminocarbonyl)-3-anilino-1H-pyrazol-1-yl]-3-cyanopiperidine-1-carboxylate] | 108 nM | 1270 nM | 
CC(C)(C)OC(=O)N1CC[C@@H](n2cc(C(N)=O)c(Nc3ccccc3)n2)[C@H](C#N)C1 (mixture of isomers) [Example 1-2, tert-butyl(3S,4S and 3R,4R)-4-[4-(aminocarbonyl)-3-anilino-1H-pyrazol-1-yl]-3-cyanopiperidine-1-carboxylate] | 24 nM | 496 nM | 
CC(C)(COC(=O)N1CC[C@@H](C#N)[C@H](n2cc(C(N)=O)c(Nc3ccc(F)cc3)n2)C1)n1cccn1 (mixture of isomers) [Example 5-92, 2-methyl-2-(1H-pyrazol-1-yl)propyl (3S,4Rand 3R, 4S)-3-{4-carbamoyl-3-[(4-fluorophenyl)amino]-1H-pyrazol-1-yl}-4-cyanopiperidine-1-carboxylate] | 27 nM | 383 nM | 
C[C@@H]1C[C@H](C#N)[C@@H](n2cc(C(N)=O)c(Nc3ccnc(F)c3)n2)CO1 (mixture of isomers) [Example 10-1, 1-((3R,4S,6R and 3S,4R,6S)-4-Cyano-6-methyltetrahydro-2H-pyran-3-yl)-3-((2-fluoropyridin-4-yl)amino)-1H-pyrazole-4-carboxamide] | 5 nM | 25 nM | 
C[C@H]1OCC[C@@H](C#N)[C@@H]1n1cc(C(N)=O)c(Nc2ccnc(F)c2)n1 (mixture of isomers) [Example 10-2, 1-((2S,3R,4S and 2R,3S,4R)-4-cyano-2-methyltetrahydro-2H-pyran-3-yl)-3-((2-fluoropyridin-4-yl)amino)-1H-pyrazole-4-carboxamide] | 29 nM | 206 nM | 
CC(C)(C)OC(=O)N1CC[C@H](C#N)C(n2cc(C(N)=O)c(Nc3ccccc3)n2)C1 (mixture of isomers) [Example 1-3, tert-butyl(3R,4S and 3S,4R)-3-[4-(aminocarbonyl)-3-anilino-1H-pyrazol-1-yl]-4-cyanopiperidine-1-carboxylate] | 5 nM |  | 41 nM
CC(C)(C)OC(=O)N1CC[C@H](C#N)C(n2cc(C(N)=O)c(Nc3ccc(F)cc3)n2)C1 (mixture of isomers) [Example 2-1, tert-Butyl(3R,4S and 3S,4R)-3-{4-carbamoyl-3-[(4-fluorophenyl)amino]-1H-pyrazol-1-yl}-4-cyanopiperidine-1-carboxylate] | 6 nM |  | 39 nM
N#C[C@H]1CCNCC1n1cc(C(N)=O)c(Nc2ccc(F)cc2)n1 (mixture of isomers) [Example 3-1, 1-[(3R,4S and 3S,4R)-4-cyanopiperidin-3-yl]-3-[(4-fluorophenyl)amino]-1H-pyrazole-4-carboxamide] | 13 nM |  | 125 nM
N#C[C@@H]1CNCC[C@H]1n1cc(C(N)=O)c(Nc2ccc(F)cc2)n1 (racemic) [Example 3-2, 1-[(3R,4R and 3S,4S)-3-cyanopiperidin-4-yl]-3-[(4-fluorophenyl)amino]-1H-pyrazole-4-carboxamide] | 7 nM |  | 81 nM
N#C[C@@H]1CNCCC1n1cc(C(N)=O)c(Nc2ccc(F)cc2)n1 (mixture of isomers) [Example 3-3, 1-[(3R,4R and 3S,4S)-3-cyanopiperidin-4-yl]-3-[(4-fluorophenyl)amino]-1H-pyrazole-4-carboxamide] | 102 nM |  | 628 nM
CC(OC(=O)N1CC[C@@H](n2cc(C(N)=O)c(Nc3ccc(F)cc3)n2)[C@H](C#N)C1)C(F)(F)F (mixture of isomers) [Example 5-1, 2,2,2-Trifluoro-1-methylethyl(3R,4R and 3S,4S)-4-{4-carbamoyl-3-[(4-fluorophenyl)amino]-1H-pyrazol-1-yl}-3-cyanopiperidine-1-carboxylate] | 15 nM |  | 387 nM
COCCOC(=O)N1CC[C@@H](C#N)C(n2cc(C(N)=O)c(Nc3ccc(F)cc3)n2)C1 (mixture of isomers) [Example 5-83, 2-methoxyethyl (3S,4R and 3R,4S)-3-{4-carbamoyl-3-[(4-fluorophenyl)amino]-1H-pyrazol-1-yl}-4-cyanopiperidine-1-carboxylate] |  |  | 120 nM
CC1(COC(=O)N2CC[C@@H](C#N)C(n3cc(C(N)=O)c(Nc4ccc(F)cc4)n3)C2)COC1 (mixture of isomers) [Example 5-90, (3-methyloxetan-3-yl)methyl (3S,4R and 3R,4S)-3-{4-carbamoyl-3-[(4-fluorophenyl)amino]-1H-pyrazol-1-yl}-4-cyanopiperidine-1-carboxylate] |  |  | 96 nM
N#C[C@@H]1CCN(Cc2cc(F)ccn2)C[C@H]1n1cc(C(N)=O)c(Nc2ccc(F)cc2)n1 (racemic) [Example 6-7, 1-{(3S,4R and 3R,4S)-4-cyano-1-[(4-fluoropyridin-2-yl)methyl]piperidin-3-yl}-3-[(4-fluorophenyl)amino]-1H-pyrazole-4-carboxamide] |  |  | 47 nM
N#C[C@@H]1CCN(CC2CCC2)C[C@H]1n1cc(C(N)=O)c(Nc2ccc(F)cc2)n1 (racemic) [Example 6-12, 1-[(3S,4R and 3R,4S)-4-cyano-1-(cyclobutylmethyl)piperidin-3-yl]-3-[(4-fluorophenyl)amino]-1H-pyrazole-4-carboxamide] |  |  | 33 nM
CCn1ccnc1CN1CC[C@@H](C#N)[C@H](n2cc(C(N)=O)c(Nc3ccc(F)cc3)n2)C1 (racemic) [Example 6-19, 1-{(3S,4R and 3R,4S)-4-cyano-1-[(1-ethyl-1H-imidazol-2-yl)methyl]piperidin-3-yl}-3-[(4-fluorophenyl)amino]-1H-pyrazole-4-carboxamide] |  |  | 11 nM
N#C[C@@H]1CN(Cc2cscn2)CC[C@H]1n1cc(C(N)=O)c(Nc2ccc(F)cc2)n1 (racemic) [Example 6-27, 1-[(3R,4R and 3S,4S)-3-cyano-1-(1,3-thiazol-4-ylmethyl)piperidin-4-yl]-3-[(4-fluorophenyl)amino]-1H-pyrazole-4-carboxamide] |  |  | 37 nM
N#C[C@@H]1CN(Cc2ncco2)CC[C@H]1n1cc(C(N)=O)c(Nc2ccc(F)cc2)n1 (racemic) [Example 6-29, 1-[(3R,4R and 3S,4S)-3-cyano-1-(1,3-oxazol-2-ylmethyl)piperidin-4-yl]-3-[(4-fluorophenyl)amino]-1H-pyrazole-4-carboxamide] |  |  | 47 nM
N#C[C@H]1CS(=O)(=O)CC1n1cc(C(N)=O)c(Nc2ccc(F)cc2)n1 (mixture of isomers) [Example 8-5, 1-((3S,4S and 3R,4R)-4-cyano-1,1-dioxidotetrahydrothiophen-3-yl)-3-((4-fluorophenyl)amino)-1H-pyrazole-4-carboxamide] |  |  | 32 nM
N#C[C@@H]1CS(=O)(=O)CC1n1cc(C(N)=O)c(Nc2ccc(F)cc2)n1 (mixture of isomers) [Example 8-6, 1-((3S,4R and 3R,4S)-4-cyano-1,1-dioxidotetrahydrothiophen-3-yl)-3-((4-fluorophenyl)amino)-1H-pyrazole-4-carboxamide] |  |  | 24 nM
N#C[C@@H]1CS(=O)(=O)CC1n1cc(C(N)=O)c(Nc2ccc(S(=O)(=O)C(F)(F)F)cc2)n1 (mixture of isomers) [Example 8-7, 1-((3S,4R and 3R,4S)-4-cyano-1,1-dioxidotetrahydrothiophen-3-yl)-3-((4-((trifluoromethyl)sulfonyl)phenyl)amino)-1H-pyrazole-4-carboxamide] |  |  | 15 nM
N#C[C@H]1CCOC[C@@H]1n1cc(C(N)=O)c(Nc2ccc(Cl)nc2)n1 (single isomer, unassigned) [Example 9-27, 3-[(6-chloropyridin-3-yl)amino]-1-[(3R,4S or 3S,4R)-4-cyanotetrahydro-2H-pyran-3-yl]-1H-pyrazole-4-carboxamide] |  |  | 134 nM
N#C[C@@H]1CCOC[C@H]1n1cc(C(N)=O)c(Nc2ccc(Cl)nc2)n1 (single isomer, unassigned) [Example 9-28, 3-[(6-chloropyridin-3-yl)amino]-1-[(3S,4R or 3R,4S)-4-cyanotetrahydro-2H-pyran-3-yl]-1H-pyrazole-4-carboxamide] |  |  | 4 nM
N#C[C@H]1CCOC[C@@H]1n1cc(C(N)=O)c(Nc2ccc(C(F)F)nc2)n1 (single isomer, unassigned) [Example 9-32, 1-[(3R,4S or 3S,4R)-4-cyanotetrahydro-2H-pyran-3-yl]-3-{[6-(difluoromethyl)pyridin-3-yl]amino}-1H-pyrazole-4-carboxamide] |  |  | 134 nM
N#C[C@@H]1CCOC[C@H]1n1cc(C(N)=O)c(Nc2ccc(C(F)F)nc2)n1 (single isomer, unassigned) [Example 9-33, 1-[(3S,4R or 3R,4S)-4-cyanotetrahydro-2H-pyran-3-yl]-3-{[6-(difluoromethyl)pyridin-3-yl]amino}-1H-pyrazole-4-carboxamide] |  |  | 3 nM
CN(C)C(=O)c1ccc(Nc2nn([C@H]3COCC[C@@H]3C#N)cc2C(N)=O)cc1 (single isomer, unassigned) [Example 9-34, 1-[(3R,4S or 3S,4R)-4-cyanotetrahydro-2H-pyran-3-yl]-3-{[4-(dimethylcarbamoyl)phenyl]amino}-1H-pyrazole-4-carboxamide] |  |  | 0.2 nM
N#C[C@@H]1CS(=O)(=O)C[C@H]1n1cc(C(N)=O)c(Nc2ccc(F)cc2)n1 (single isomer, unassigned) [Example 12-1, 1-((3S,4R or 3R,4S)-4-Cyano-1,1-dioxidotetrahydrothiophen-3-yl)-3-((4-fluorophenyl)amino)-1H-pyrazole-4-carboxamide] |  | > 1500 nM | 
N#C[C@@H]1CS(=O)(=O)C[C@H]1n1cc(C(N)=O)c(Nc2ccc(F)cc2)n1 (single isomer, unassigned) [Example 12-2, 1-((3S,4R or 3R,4S)-4-Cyano-1,1-dioxidotetrahydrothiophen-3-yl)-3-((4-fluorophenyl)amino)-1H-pyrazole-4-carboxamide] |  | 16 nM | 

From US9394282B2, “Pyrazole carboxamides as Janus kinase inhibitors” (Merck Sharp & Dohme Corp., priority 2011, dated 2016)
